Test results published in US11485744B2, “High penetration prodrug compositions of antimicrobials and antimicrobial-related compounds” (priority 2009, dated 2022).
Where a name gives a salt, the structure may show the parent alone.

Test: In vitro penetration across isolated human skin in modified Franz cells
Settings: Table 1b; isolated human skin, Franz cells, 10% in 0.2 M phosphate buffer pH 7.4, n=5
Experimental: Penetration rates of HPPs and their parent drugs through human skin were measured in vitro by modified Franz cells. A Franz cell had two chambers, the top sample chamber and the bottom receiving chamber. The human skin tissue (360-400 μm thick) that separated the top and the receiving chambers was isolated from the anterior or posterior thigh areas.
A test compound (2 mL, 10% in 0.2 M phosphate buffer, pH 7.4) was added to the sample chamber of a Franz cell. The receiving chamber contained 10 ml of 0.2 M phosphate buffer which was stirred at 600 rpm. The amount of the tested compound penetrating the skin was determined by high-performance liquid chromatography (HPLC) method.

Row | SMILES | In vitro Penetration Rate (apparent flux), Parent compounds (beta-lactamases inhibitors) [mg/cm^2/h] | In vitro Penetration Rate (apparent flux), HPPs of beta-lactamases inhibitors [mg/cm^2/h]
1 | O=C(NCP(=O)([O-])Oc1cccnc1)OCc1ccccc1.[Na+] [[(N-benzyloxycarbonylamino)methyl]-phosphonic acid mono-(3-pyridinyl) ester sodium salt, reference compound] | <0.001 | –
2 | O=C(NCP(=O)([O-])Oc1ccc([N+](=O)[O-])cc1)OCc1ccccc1.[Na+] [[(N-benzyloxycarbonylamino)methyl]-phosphonic acid mono-(4-nitrophenyl) ester sodium salt, reference compound] | <0.001 | –
3 | CCN(CC)COP(=O)(CNC(=O)OCc1ccccc1)Oc1ccc([N+](=O)[O-])cc1.Cl (stereo not shown) [[(N-benzyloxycarbonylamino)methyl]-phosphonic acid (4-nitrophenyl)(N,N-diethylaminomethyl) ester•HCl salt] | – | 0.37 ± 0.03
4 | Cl.O=C(NCP(=O)(OCCN1CCCCC1)Oc1cccnc1)OCc1ccccc1 (stereo not shown) [[(N-benzyloxycarbonylamino)methyl]-phosphonic acid (3-pyridinyl)(1-piperidineethyl) ester•HCl salt] | – | 0.25 ± 0.04

Same assay, conditions: human, 10 %, pH 7.4

Row | SMILES | In vitro Penetration Rate (apparent flux), Parent compounds [mg/cm^2/h] | In vitro Penetration Rate (apparent flux), Parent compounds (beta-lactamases inhibitors) [mg/cm^2/h]
5 | CO[C@@]1(NC(=O)Cc2cccs2)C(=O)N2C(C(=O)O)=C(COC(N)=O)CS[C@@H]21 [cefoxitin, reference compound] | <0.001 | –
6 | Cc1onc(-c2c(Cl)cccc2Cl)c1C(=O)N[C@@H]1C(=O)N2[C@@H]1SC(C)(C)[C@@H]2C(=O)O [Dicloxacillin, reference compound] | <0.001 | –
7 | CCN1CCN(C(=O)N[C@@H](C(=O)N[C@@H]2C(=O)N3C(C(=O)O)=C(CSc4nnnn4C)CS[C@H]23)c2ccc(O)cc2)C(=O)C1=O [Cefoperazone, reference compound] | <0.015 | –
8 | C=CC1=C(C(=O)O)N2C(=O)[C@@H](NC(=O)/C(=N\OCC(=O)O)c3csc(N)n3)[C@H]2SC1 [Cefixime, reference compound] | <0.010 | –
9 | CO/N=C(\C(=O)N[C@@H]1C(=O)N2C(C(=O)O)=C(COC(N)=O)CS[C@H]12)c1ccco1 [Cefuroxime, reference compound] | <0.001 | –
10 | CC(=O)OCC1=C(C(=O)O)N2C(=O)[C@@H](NC(=O)Cc3cccs3)[C@H]2SC1 [Cephalothin, reference compound] | <0.001 | –
11 | C[C@]1(Cn2ccnn2)[C@H](C(=O)O)N2C(=O)C[C@H]2S1(=O)=O [tazobactam, [2S-(2alpha,3beta,5alpha)]-3-Methyl-7-oxo-3-(1H-1,2,3-triazol-1-ylmethyl)-4-thia-1-azabicyclo[3.2.0]heptane-2-carboxylic acid 4,4-dioxide sodium salt, reference compound] | – | <0.001
12 | CC1(C)S[C@@H]2[C@H](NC(=O)[C@H](NC(=O)N3CCN(S(C)(=O)=O)C3=O)c3ccccc3)C(=O)N2[C@H]1C(=O)O [Mezlocillin, reference compound] | <0.001 | –
13 | NCc1ccccc1CC(=O)N[C@@H]1C(=O)N2C(C(=O)O)=C(CSc3nnnn3CC(=O)O)CS[C@H]12 [Ceforanide, reference compound] | <0.001 | –
14 | CC1(C)S[C@@H]2[C@H](NC(=O)[C@H](NC(=O)N3CCNC3=O)c3ccccc3)C(=O)N2[C@H]1C(=O)O [Azlocillin, reference compound] | <0.001 | –

Same assay, conditions: pH 7.4

Row | SMILES | In vitro Penetration Rate (apparent flux), HPPs [mg/cm^2/h] | In vitro Penetration Rate (apparent flux), Parent compounds [mg/cm^2/h] | In vitro Penetration Rate (apparent flux), HPPs of beta-lactamases inhibitors [mg/cm^2/h] | In vitro Penetration Rate (apparent flux), HPPs of sulfonamides, sulfones, quinolones [mg/cm^2/h]
15 | CC1(C)SC2C(NC(=O)[C@H](NC(=O)N3CCNC3=O)c3ccccc3)C(=O)N2C1C(=O)OCC1CCCN1.Cl (stereo partly drawn) [D-α-[(imidazolidin-2-on-1-yl)carbonylamino]benzylpenicillin 2-pyrrolidinemethyl ester hydrochloride] | 0.72 ± 0.05 | – | – | –
16 | CCCN(CCC)CCOC(=O)C1N2C(=O)C(NC(=O)c3c(OC)cccc3OC)C2SC1(C)C.Cl (stereo not shown) [6-(2,6-dimethoxybenzamido)penicillinic acid 2-dipropylaminoethyl ester hydrochloride] | 0.52 ± 0.07 | – | – | –
17 | C=CCSCC(=O)NC1C(=O)N2C1SC(C)(C)C2C(=O)OCCN(C)C.Cl (stereo not shown) [Allylmercaptomethylpenicillinic acid 2-dimethylaminoethyl ester hydrochloride] | 0.65 ± 0.05 | – | – | –
18 | Cc1onc(-c2c(Cl)cccc2Cl)c1C(=O)NC1C(=O)N2C1SC(C)(C)C2C(=O)OCCN1CCCCC1.Cl (stereo not shown) [6-[3-(2,6-dichlorophenyl)-5-methyl-4-isoxazolecarboxamido]penicillinic acid 1-piperidineethyl ester hydrochloride] | 0.58 ± 0.05 | – | – | –
19 | C=CCSCC(=O)N[C@@H]1C(=O)N2[C@@H]1SC(C)(C)[C@@H]2C(=O)O [penicillin O, reference compound] | – | <0.001 | – | –
20 | CC1(C)SC2C(NC(=O)C(NC(=O)N3CCN(S(C)(=O)=O)C3=O)c3ccccc3)C(=O)N2C1C(=O)OCCN1CCCC1.Cl (stereo not drawn) [6R-[2-[3-(methylsulfonyl)-2-oxo-1-imidazolidinecarboxamido]-2-phenylacetamido]penicillinic acid 1-pyrrolidineethyl ester hydrochloride] | 0.79 ± 0.07 | – | – | –
21 | Cl.O=C(OCCC1CCNCC1)[C@H]1/C(=C/CO)O[C@@H]2CC(=O)N21 [clavulanic acid-PEE, (2R,5R,Z)-3-(2-hydroxyethylidene)-7-oxo-4-oxa-1-aza-bicyclo[3.2.0]heptane-2-carboxylic acid 4-piperidineethyl ester•HCl salt] | – | – | 0.29 ± 0.02 | –
22 | Cc1onc(-c2ccccc2Cl)c1C(=O)NC1C(=O)N2C1SC(C)(C)C2C(=O)OCCC1CCCNC1.Cl (stereo not shown) [6-[3-(o-chlorophenyl)-5-methyl-4-isoxazolecarboxamido]penicillinic acid 3-piperidineethyl ester hydrochloride] | 0.85 ± 0.05 | – | – | –
23 | CCOC(=O)C1N2C(=O)C(NC(=O)[C@H](N)c3ccccc3)C2SC1(C)C.Cl (stereo partly drawn) [6-[D(−)-α-aminophenylacetamidopenicillinic acid ethyl ester hydrochloride] | 0.82 ± 0.06 | – | – | –
24 | CN(C)CCCC(=O)Nc1ccc(S(N)(=O)=O)cc1.Cl [DMAB-sulfanilamide, 4-(4-dimethylaminobutyryl)amidobenzenesulfonamide•HCl salt] | – | – | – | 0.18 ± 0.03
25 | CCN(CC)CCCOC(=O)C1=CC(=NNc2ccc(S(=O)(=O)Nc3ccccn3)cc2)C=CC1=O.Cl [sulfasalazine-DEPE, 6-oxo-3-(2-[4-(N-pyridin-2-ylsulfamoyl)phenyl]hydrazono)cyclohexa-1,4-dienecarboxylic acid N,N-diethyaminopropyl ester•HCl salt] | – | – | – | 0.21 ± 0.03
